Tests used:
XEN-like cells = assay: Transition of XEN-like colonies to CiPSCs (stages 2 and 3); type: cell-based, mouse; settings: screen of 88 small molecules in the presence of VC6TFA plus DZNep, stage 2 of 12 days
Method: MEFs, MNFs or MAFs were plated at 300,000 cells per 100 mm dish, or 50,000 cells per well on a 6-well plate. The next day (day 0), the culture was changed into stage 1 medium supplemented with small-molecule cocktail VC6TFAE (0.5 mM VPA, […] CHIR99021, 10 μM 616452, 5 μM Tranylcypromine, 50 µM FSK, 0.05 μM AM580 and 5 μM EPZ004777). […] The cells were harvested and then re-plated at 100,000 cells per well of a 6-well plate (1:15). During days 12-16, the cells were cultured in stage 1 medium supplemented with a modified small-molecule cocktail VC6TFA (0.5 mM VPA, 10 μM CHIR99021, 10 μM 616452, 5 μM Tranylcypromine, 10 μM FSK, 0.05 μM AM580). On day 16, XEN-like epithelial colonies were formed and the culture was changed into stage 2 medium supplemented with small-molecule cocktail VC6TFAZDS (0.5 mM VPA, 10 μM CHIR99021, 10 μM 616452, 5 μM Tranylcypromine, 10 μM FSK, 0.05 μM AM580, 0.05 μM DZNep, 0.5 μM 5-aza-dC and 5 μM SGC0946). On day 28, the culture was transferred into stage 3 medium. […] During CiPSC induction, the medium and small molecules were changed every 4 days.
Studies were next conducted to identify small molecules that facilitate the transition of XEN-like colonies to CiPSCs during stages 2 and 3. Small-molecule screenings were performed in the presence of small molecule cocktail VC6TFA plus DZNep (Z) for 12 days with successful enhanced generation of CiPSC colonies. […]

[1] = test system: pluripotency-related genes and XEN marker genes; assay: Real-time PCR of pluripotency, XEN and MET genes during chemical reprogramming; type: cell-based, mouse; settings: stage 2, XEN-like cells
Method: Total RNA from an entire well of cultured cells was isolated using the RNeasy Plus MiniKit (QIAGEN). For a single colony, RNA was isolated using the RNeasy Micro Kit (QIAGEN). RNA was converted to cDNA using TransScript First-Strand cDNA Synthesis SuperMix (TransGen Biotech). PCR was carried out using Power SYBRR Green PCR Master Mix (Applied Biosystems) and performed on an ABI Prism 7300 Sequence Detection System. The data were analyzed using the delta-delta Ct method.

For `Nc1ncn([C@H]2C[C@H](O)[C@@H](CO)O2)c(=O)n1` [5-aza-dC], the “CiPSC colony formation in stage 3” value (XEN-like cells) was “CiPSC colonies formed in stage 3 only when the cell culture medium was supplemented with 5-aza-dC” and the “expression of pluripotency genes (Oct4, Dppa family genes)” value [1] was “promote the expression of pluripotency genes”.
